The test system of one data set is rats after ISO damage. The note with it: at 28 days.
The test system of data set [1] is mouse heart. As to the kind of experiment: ISO injury in CM-recombined MerCreMer-ZEG and MerCreMer:RYP mice (lineage tracing of new CMs). The class given is in vivo. The note with it: 28 days after ISO. The source says: BrdU labeling and Ki67 expression by itself cannot establish whether the new CMs are generated by the reported division of pre-existing adult CMs or by the activation and ensuing differentiation of a stem-progenitor cell compartment. To specifically address this issue, we traced the cell lineage of the new CMs. We generated double-transgenic mice (MerCreMer-ZEG) (Hsieh et al., 2007; Loffredo et al., 2011) in which, upon tamoxifen administration, β-galactosidase (β-Gal) is replaced by enhanced green fluorescent protein (GFP) exclusively in cardiac cells which have already activated the Myh6 gene (and, therefore, the transgene carrying the cre recombinase gene) which are either post-mitotic CMs or amplifying cells already committed to the CM lineage (i.e., immature myocytes/myocyte precursors).
In tamoxifen-naïve MerCreMer-ZEG mice, 99±0.2% of the CMs express β-Gal and are negative for GFP (the leakage of the Myh6-Cre construct in these animals is ˜0.2%). Tamoxifen correctly switched β-Gal to GFP in CMs (FIG. 15A-C). […] In this setting, if new CMs (BrdU^pos) originated from division of pre-existing CMs they should be more GFP^pos and the ratio between GFP^pos and β-Gal^pos CMs should remain unchanged at ˜80/20. If instead, the new CMs originate from non-CM cells, they should be β-Gal^pos and produce a “dilution” of GFP^pos CMs with a decrease of the GFP^pos/β-Gal^pos CM ratio (FIG. 15A).
In mice, ISO injection caused the same type of myocardial damage and LV dysfunction shown in rats, resulting in c-kit^poseCSC activation, CM regeneration and recovery of cardiac function (FIG. 22). […] These numbers match the CM loss produced by ISO administration (FIG. 22). In contrast, we detected very few newly generated, BrdU^posβ-Gal^pos, CMs (0.15±0.05%) in saline-treated CTRL mice (FIG. 15E). […] This discrepancy might be due to the different injury models used. In contrast to coronary ligation, although ISO kills a large number of CMs, because it leaves a patent coronary circulation the eCSCs are spared and provides a more physiologic test for the endogenous reparative potential of the adult heart (Ellison et al., 2007b). Furthermore, during the two-week administration of tamoxifen for Cre induction it would be expected that some eCSCs have committed to the myogenic lineage and activated the Myh6 gene with recombination of the transgene and generation of […], as reported by Dong et al. (2012).
Finally, we dissociated to single cells CMs from the hearts of double transgenic MerCreMer:RYP mice obtained by crossing MerCreMer with R26R-EYFP (RYP) mice (Qian et al., 2012), in which the CMs were labeled with the enhanced yellow fluorescent protein (EYFP) upon tamoxifen injection. […]

The test system of data set [2] is mouse heart. Put plainly: ISO injury in Lenti-c-kit/Cre recombined RYP mice (c-kit^pos eCSC fate map). The class given is in vivo. To be noted: 28 days after ISO.
Data set [3] concerns rats with ISO+5-FU cardiomyopathy. Put plainly: hemodynamic measurements (LV catheterization) after tail vein cell injection in ISO+5-FU cardiomyopathy. The class given is in vivo, rat. The note with it: (84 d) 3 months.

Each structure is given as a SMILES string.

Experimental findings from patent publication US10526581B2, “Modulation of cardiac stem-progenitor cell differentiation, assays and uses thereof” (priority 2013, dated 2020) are described below.

As for `CC(C)NCC(O)c1ccc(O)c(O)c1` (centres unmarked) [ISO, isoproterenol], the mortality with rats after ISO damage is on record as 0 of 10. Further, in the data set with mouse heart [1] (MerCreMer/ZEG mice), the “BrdU^pos CMs” value was determined as 9±2%, the “GFP^pos CMs” value was determined as 73.5±3.5% and the “β-Gal^pos CMs” value is 26.5±2%. Also, the “YFP-marked endogenous CMs” value with mouse heart [1] (MerCreMer:RYP mice, apex (and sub-endocardium)) is reported as approximately 72%. For the same compound, the “newly-formed (BrdU^pos) CMs” value in the data set with mouse heart [2] turned out to be 9.5±2%. For the same compound, the “YFP^pos cells in the unfixed CM preparation (FACS)” value with mouse heart [2] (LV apex) is given as 8.3±1%. The “EYFP positive CMs, % of total BrdU^pos CMs” value in the data set with mouse heart [2] (LV) is 43±3%. Also, the “EYFP positive CMs, % of total BrdU^pos CMs” value in the data set with mouse heart [2] (apex) stood at 74±7%. Besides, the “YFP^pos cells in the unfixed CM preparation (FACS)” value with mouse heart [2] (total LV) is 2.9±0.5%. In data set [3], the LVDevP came to 98.9 ± 10.6 mmHg, the LVEDP is listed as 2.2 ± 2.3 mmHg, the “dP/dt+” value stood at 8344 ± 1294 mmHg/s and the “dP/dt−” value is given as 7936 ± 1072 mmHg/s.
